Three compounds from ChEMBL document CHEMBL3045480, “Goat brain enkephalin degrading enzyme: interaction with analgesic and antihypertensive drugs” (Med Chem Res, 2011) can be followed below.

This assay deals with T1, Dipeptidyl peptidase 3 (Bos mutus) (UniProt L8I2E6).
T1 sequence (whole entry): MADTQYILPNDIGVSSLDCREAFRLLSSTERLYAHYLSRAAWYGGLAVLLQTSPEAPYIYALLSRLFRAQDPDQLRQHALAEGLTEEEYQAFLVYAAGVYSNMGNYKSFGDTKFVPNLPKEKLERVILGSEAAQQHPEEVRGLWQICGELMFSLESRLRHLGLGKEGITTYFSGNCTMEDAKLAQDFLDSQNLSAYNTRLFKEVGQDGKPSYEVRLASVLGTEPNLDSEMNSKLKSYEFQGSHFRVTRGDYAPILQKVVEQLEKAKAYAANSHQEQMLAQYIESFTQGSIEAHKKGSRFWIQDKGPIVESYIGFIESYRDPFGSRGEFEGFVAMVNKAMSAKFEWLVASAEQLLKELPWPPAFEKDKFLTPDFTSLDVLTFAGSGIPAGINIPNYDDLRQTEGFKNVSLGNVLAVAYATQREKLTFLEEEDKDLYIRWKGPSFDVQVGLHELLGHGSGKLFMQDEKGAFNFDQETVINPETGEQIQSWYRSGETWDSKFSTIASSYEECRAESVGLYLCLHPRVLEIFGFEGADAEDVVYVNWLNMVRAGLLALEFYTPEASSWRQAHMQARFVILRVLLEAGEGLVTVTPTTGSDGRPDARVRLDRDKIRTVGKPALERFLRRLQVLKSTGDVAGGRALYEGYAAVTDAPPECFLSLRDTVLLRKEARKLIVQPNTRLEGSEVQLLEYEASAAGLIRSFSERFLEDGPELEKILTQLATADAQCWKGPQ
Description: Inhibition of Capra hircus (goat) brain DPP-3 using Arg-Arg-4mbetaNA as substrate assessed as liberation of 4mbetaNA from substrate. The following applies: target entry is the homologue from another species.
`CS(=O)(=O)c1ccc(C2=C(c3ccccc3)C(=O)OC2)cc1`: the inhibition (commonly the change of the read-out against control, counted positive when it falls) came to 71%.
For `O=C(O)Cc1ccccc1Nc1c(Cl)cccc1Cl` the value was 85%.
For `CC(=O)Nc1ccc(O)cc1` the value was 96%.
